Experimental data reported in PMC11106742, “Computational Design of Cyclic Peptide Inhibitors of a Bacterial Membrane Lipoprotein Peptidase” (ACS Chemical Biology, 2024).
Numbered stars: 1 amine (or outer) side, 2 acyl side, 3 side chain; on linkers, the order of the positions; unused ones are H or OH. Bridge positions count the residues as written; N and C are the ends. Square brackets hold non-standard residues; d marks the D form. Peptide text beside a SMILES is read from it. * marks the point of attachment. X6 = CCCCC[C@H](C)N(CC(=O)[*:2])[*:1]; X7 = CCOCCOCCOCCN(CC(=O)[*:2])[*:1]; aIle = CC[C@@H](C)[C@H](N)C(=O)O; N(octyl)Gly = CCCCCCCCNCC(=O)O; aThr = C[C@H](O)[C@H](N)C(=O)O; NMeL = CN[C@@H](CC(C)C)C(=O)O; dOrn = NCCC[C@@H](N)C(=O)O; dDab = NCC[C@@H](N)C(=O)O; Octanoyl = CCCCCCCC(=O)*; Orn = NCCC[C@H](N)C(=O)O; Dab = NCC[C@H](N)C(=O)O; Butyryl = CCCC(=O)*; βAla = NCCC(=O)O

Tests used:
[1] = tested on: E. coli; assay type: cell-based
Source text: Initially, a library of six lipid amide analogues was synthesized via cyclization between the side-chain epsilon -NH2 of an N-terminal L-lysine residue and the C-terminus of an L-serine residue.
Each analogue was acylated with a simple linear lipid, ranging from C3 to C8 in length (Figure S1). To further probe the potential of the amide isostere, five additional analogues were synthesized in which the D- or L-stereoisomer of cationic amino acids diaminobutyric acid (Dab), ornithine (Orn), or Lys were used as the N-terminal cyclization partner. Each analogue was acylated with an octanoyl tail and the subsequent effects of ring size and/or stereochemistry, as well as lipid length, determined by assessing antimicrobial activity against E. coli. Peptides were also screened against S. aureus.
Unfortunately, each analogue was unable to […]

[2] = biological target: T1, PaLspA (Pseudomonas aeruginosa, UniProt Q9HVM5); assay: biochemical
T1 construct: made in house
T1 sequence (Q9HVM5 1-169): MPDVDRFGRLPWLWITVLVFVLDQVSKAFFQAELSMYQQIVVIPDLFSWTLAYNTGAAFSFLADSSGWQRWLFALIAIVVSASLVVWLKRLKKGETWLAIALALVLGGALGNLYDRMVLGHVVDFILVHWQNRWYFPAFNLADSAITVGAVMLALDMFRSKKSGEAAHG
Experimental: These analogues were tested for activity against PaLspA using an in vitro fluorescence resonance energy transfer (FRET) activity assay.[21] LspA inhibition was detected by a change in fluorescence upon cleavage of a FRET peptide substrate containing an N-terminal quencher moiety and a C-terminal fluorophore.
(A) Structures of G2a and G2d. (B) Results of the FRET dose–response assays. PaLspA concentration was 40 nM, FRET substrate concentration was 50 μM, and the concentration of inhibitors globomycin, G2a, and G2d ranged from 0–3,000 nM. (C) SDS-PAGE gels and quantitation of the PaLspA gel-shift dose–response assays. ppICP concentration was 12 μM, DOPG concentration was 600 μM, and Lgt concentration was 1.2 μM. The Lgt-catalyzed reaction was allowed to proceed for 60 min at 37 °C, after which inhibitors (0–1000 nM) were added. The PaLspA reaction was initiated by the addition of 100 nM enzyme. The LspA reaction was allowed to proceed for 30 min at 37 °C before being quenched with SDS-PAGE loading buffer (62.5 mM Tris/HCl pH 6.8, 2.5% (w/v) SDS, 0.002% (w/v) bromophenol blue, 0.5 M β-mercaptoethanol, 10% (v/v) glycerol). Quantitation of the gel-shift assays was performed using Image Lab, and data were plotted using GraphPad Prism.
Materials: All reagents were obtained from commercial sources and used without additional purification. All aqueous solutions were prepared using ultrapure laboratory grade water (deionized, filtered, and sterilized) obtained from an in-house ELGA water purification system. […]
Expression and purification of PaLspA, Lgt, EcLspA and ppICP: PaLspA, Lgt and pre-proICP (ppICP) were expressed and purified using previously published protocols (Vogely et al, 2016).[1] EcLspA was expressed and purified as described for PaLspA, with the following modification. The lysis buffer was 50 mM Hepes pH 7.5, 150 mM NaCl, 1 mM TCEP, 10 %(v/v) glycerol. Isolated membranes, containing EcLspA, were solubilized with 1 %(v/v) FC12 for 2 h at […]

[3] = biological target: T1, PaLspA; assay: Enzyme inhibition assay of rationally designed analogues with PaLspA; assay type: biochemical; details: peptide incubated with PaLspA
Experimental: Additionally, C3 – C5 (peptides S5 – S7) and C7-Gbm(NLys) (peptide S9) amide analogues were submitted for enzyme inhibition assays to determine if these cyclic amide isosteres could still inhibit the target enzyme, LspA. Each peptide was incubated with PaLspA and the observed reduction in enzyme activity reported. […]
found for peptides S5 and S9 (C3 and C7-Gbm(NLys). […]
Four linear globomycin analogues were synthesized to determine the necessity of the cyclic core.
The pentapeptide core of NMeLeu-Ile-Ser-Thr-Gly-OH was synthesized as both the natural allo-version and the cheaper non-allo version in which native residues allo-L-isoleucine and allo-L-threonine were replaced by their cheaper non-allo derivatives. Each linear pentapeptide was synthesized in both its acylated, octyl-derivative and non-acylated form and submitted for analysis of its PaLspA inhibitory activity. No PaLspA inhibition was observed, confirming the importance of globomycin’s cyclic core for antimicrobial activity.

Row | MIC [1] [µg/mL] | Structure (SMILES) | IC50 [2] [nM] | reduction in PaLspA enzyme activity (in words) [3]
1 | > 200 | CCCCCCCC(=O)N[C@@H]1CCNC(=O)[C@H](CO)NC(=O)[C@H](CO)NC(=O)[C@H]([C@H](C)CC)NC(=O)[C@H](CC(C)C)N(C)C1=O [S16, C8-Globomycin(N-D-Dab)] (Octanoyl-[dDab][NMeL][aIle]SS; lactam 1-C) |  | 
2 |  | CCCCC[C@H](C)N1CC(=O)N(C)[C@@H](CC(C)C)C(=O)N[C@@H]([C@H](C)CC)C(=O)N[C@@H](CO)C(=O)N[C@@H]([C@H](C)O)C(=O)NCCC1=O [G1a] (cyclo([NMeL][aIle]S[aThr][βAla][X6])) | 2940 ± 850 | 
3 | > 200 | CCCCCCCC(=O)N[C@H]1CCNC(=O)[C@H](CO)NC(=O)[C@H](CO)NC(=O)[C@H]([C@H](C)CC)NC(=O)[C@H](CC(C)C)N(C)C1=O [S12, C8-Globomycin(N-Dab)] (Octanoyl-[Dab][NMeL][aIle]SS; lactam 1-C) |  | 
4 | > 200 | CCCCCCCC(=O)N[C@H]1CCCNC(=O)[C@H](CO)NC(=O)[C@H](CO)NC(=O)[C@H]([C@H](C)CC)NC(=O)[C@H](CC(C)C)N(C)C1=O [S11, C8-Globomycin(N-Orn)] (Octanoyl-[Orn][NMeL][aIle]SS; lactam 1-C) |  | 
5 | > 200 | CCCCCCCC(=O)N(C)[C@@H](CC(C)C)C(=O)N[C@H](C(=O)N[C@@H](CO)C(=O)N[C@H](C(=O)NCC(=O)O)[C@H](C)O)[C@H](C)CC [S3, Octanoyl-Globomycin] (Octanoyl-[NMeL][aIle]S[aThr]G-OH) |  | 
6 |  | CCOCCOCCOCCN1CC(=O)N(C)[C@@H](CC(C)C)C(=O)N[C@@H]([C@H](C)CC)C(=O)N[C@@H](CO)C(=O)N[C@@H]([C@H](C)O)C(=O)NCCC1=O [G2e] (cyclo([NMeL][aIle]S[aThr][βAla][X7])) | 6160 ± 840 | 
7 |  | CCCCCCCCN1CC(=O)N(C)[C@@H](CC(C)C)C(=O)N[C@@H]([C@H](C)CC)C(=O)N[C@@H](CO)C(=O)N[C@@H]([C@H](C)O)C(=O)NCCC1=O [G2c] (cyclo([NMeL][aIle]S[aThr][βAla][N(octyl)Gly])) | 920 ± 70 | 
8 | > 200 | CCCCCCCC(=O)N[C@@H]1CCCCNC(=O)[C@H](CO)NC(=O)[C@H](CO)NC(=O)[C@H]([C@H](C)CC)NC(=O)[C@H](CC(C)C)N(C)C1=O [S14, C8-Globomycin(N-D-Lys)] (Octanoyl-[dK][NMeL][aIle]SS; lactam 1-C) |  | 
9 | > 200 | CCCCCCCC(=O)N[C@@H]1CCCNC(=O)[C@H](CO)NC(=O)[C@H](CO)NC(=O)[C@H]([C@H](C)CC)NC(=O)[C@H](CC(C)C)N(C)C1=O [S15, C8-Globomycin(N-D-Orn)] (Octanoyl-[dOrn][NMeL][aIle]SS; lactam 1-C) |  | 
10 | > 200 | CCCCCCCC(=O)N[C@H]1CCCCNC(=O)[C@H](CO)NC(=O)[C@H](CO)NC(=O)[C@H]([C@H](C)CC)NC(=O)[C@H](CC(C)C)N(C)C1=O [S10, C8-Globomycin(N-Lys)] (Octanoyl-K[NMeL][aIle]SS; lactam 1-C) |  | 

Row | Structure (SMILES) | MIC [1] [µg/mL] | IC50 [2] [nM] | reduction in PaLspA enzyme activity (in words) [3]
11 | CCCC(=O)N[C@H]1CCCCNC(=O)[C@H](CO)NC(=O)[C@H](CO)NC(=O)[C@H]([C@H](C)CC)NC(=O)[C@H](CC(C)C)N(C)C1=O [S6, C4-Globomycin(N-Lys)] (Butyryl-K[NMeL][aIle]SS; lactam 1-C) | > 200 |  | no reduction in activity
